# What was measured:
# tissue [1] = assay: Tissue toxicity limits (Trypan blue test, threshold of tissue irritancy); assay type: in vivo; settings: in vivo
# From the text: The toxicity of the homologous series of N-alkylpipecolic acid-2,6-xylidides increases step wise and quickly with the lengthening of the alkyl chain. This is manifest from Table 1 set forth below, which compares racemic mixtures of alkyl homologues having from 1 to 5 carbon atoms.
# *Trypan blue test; Hoppe et al. (1950), 39, 147-151 "Use of Trypan Blue
# and Rabbit Eye Tests For Irritation", J. Amer. Pharm. Assoc. (Scient.
# Ed.), the values are approximate threshold values of tissue irritancy.
# [2] = test system: peripheral nerve endings of the epidermis; assay: Intracutaneous wheals, infiltration anesthesia on forearms of man; assay type: in vivo; settings: 12 healthy volunteers, pinprick
# From the text: By use of intracutaneous wheals it is possible to measure the analgesic effect of an anesthetic on the peripheral nerve endings of the epidermis.
# This technique gives information about:
# (1) The duration of anesthesia.
# ^1 Infiltration anesthesia on forearms of man. The test solutions wer
# injected intracutaneously on the dorsum of the forearms of 12 healthy
# volunteers, 20-25 years old. Three wheals were made on each arm in a
# rotating system in a doublebind fashion. The local anesthetic effect was
# tested using a pinprick technique. The "duration of anesthesia" was
# defined as the time during which none out of six pinpricks into the wheal
# was felt. The method has been described by Dhuner et al. (1972). […]
# ulnar volar nerves = assay: Finger blockade, digital nerve blocks in man; assay type: in vivo; settings: for Time of onset, finger blockade: time from injection to complete analgesia
# Method: ^2 Digital nerve blocks in man. The test solutions were injected to
# block the ulnar volar nerves on the 2nd and 4th fingers of the same
# volunteers who had participated in the intracutaneous wheal tests
# described above. The tests were carried out in a double blind fashion in
# rotating system, so that each solution was used with equal frequency on
# each of the blocked fingers. A total of for injections 1.0 ml per
# injection, was done in each subject. One week later the procedure was
# repeated in the same subjects using the remaining test solutions. This
# method has been described by Dhuner et al. (1972) (for citation see Table
# 2 footnote 1). To measure the efficacy and duration of the blocks, the
# individual fingers were pricked rapidly 10 times with a needle algesimete
# and the number of painful pricks noted. Each finger was tested every five
# minutes until complete recovery. The time of complete anesthesia has been
# called "duration of anesthesia".
# *i.e. the time from injection to complete analgesia?
# **i.e. the number of successful anesthesias of total number of
# anesthesias performed (no anesthesia is possible if the ulnar volar nerve
# are not contacted by the anesthetic).
# skin = assay: Skin temperature measurements within intracutaneous wheals; assay type: in vivo, man; settings: for Temperature Difference (T1 wheal vs T2 controls) / T1 Intracutaneous Wheal temperature: HCl-salt, 10 minutes after injection; for T1 Intracutaneous Wheal temperature: mean of 6 wheals
# Method: The mean value of 6 wheals for each substance forms the basis for the values. The control values, however, represent the mean value obtained from 4 different sites measured outside the wheals 90 degrees apart and 2 centimeters from the wheal's center.
# In the temperature measurements, an Oriel temperature apparatus* has been used. This is battery driven and is connected to a detector (diameter, 2.5 mm) and has an accuracy of ±0.1° C. The temperature of the skin is measured by pressing the detector against the skin with a pressure of 100 grams. It is retained against the skin until a constant temperature is obtained.
# In Table 4, T1 is the measurement obtained at the center of the wheal, and T2 is the average of four measurements taken 90 degrees apart outside of the wheal and within 2 centimeters of the wheal's center.
# [3] = Anesthetic activity/potency comparison; assay type: in vivo; settings: comparison within homologous series
# tissue [4] = settings: in vivo; cited from earlier work
smiles,measurement,setting,value
"Cc1cccc(C)c1NC(=O)C1CCCCN1C (racemic) [1 R, N--methylpipecolic acid-2,6-xylidide]",Tissue toxicity limits in %,tissue [1],3.5%
same,"Analgesia-duration, intracutaneous wheals",[2]; Conc. 0.5%,65 ± 9 min
same,"Analgesia-duration, finger blockade",ulnar volar nerves; Concentration 1.0%,102 ± 22 min
same,Frequency (successful anesthesias of total performed),ulnar volar nerves; Concentration 1.0%,13/13
same,"Time of onset, finger blockade",ulnar volar nerves; Concentration 1.0%,7 ± 2 min
Cc1cccc(C)c1NC(=O)[C@H]1CCCCN1C [1 D],"Analgesia-duration, intracutaneous wheals",[2]; Conc. 0.5%,53 ± 8 min
same,"Analgesia-duration, finger blockade",ulnar volar nerves; Concentration 1.0%,71 ± 13 min
same,Frequency (successful anesthesias of total performed),ulnar volar nerves; Concentration 1.0%,9/13
same,"Time of onset, finger blockade",ulnar volar nerves; Concentration 1.0%,7 ± 2 min
Cc1cccc(C)c1NC(=O)[C@@H]1CCCCN1C [1 L],"Analgesia-duration, intracutaneous wheals",[2]; Conc. 0.5%,68 ± 11 min
same,"Analgesia-duration, finger blockade",ulnar volar nerves; Concentration 1.0%,124 ± 21 min
same,Frequency (successful anesthesias of total performed),ulnar volar nerves; Concentration 1.0%,11/12
same,"Time of onset, finger blockade",ulnar volar nerves; Concentration 1.0%,7 ± 3 min
CCN1CCCC[C@@H]1C(=O)Nc1c(C)cccc1C [2 D],"Analgesia-duration, intracutaneous wheals",[2]; Conc. 0.25%,58 ± 11 min
same,"Analgesia-duration, finger blockade",ulnar volar nerves; Concentration 0.5%,112 ± 21 min
same,Frequency (successful anesthesias of total performed),ulnar volar nerves; Concentration 0.5%,10/13
same,"Time of onset, finger blockade",ulnar volar nerves; Concentration 0.5%,9 ± 3 min
CCN1CCCC[C@H]1C(=O)Nc1c(C)cccc1C [2 L],"Analgesia-duration, finger blockade",ulnar volar nerves; Concentration 0.5%,141 ± 18 min
same,Frequency (successful anesthesias of total performed),ulnar volar nerves; Concentration 0.5%,11/13
same,"Time of onset, finger blockade",ulnar volar nerves; Concentration 0.5%,9 ± 2 min
CCCN1CCCC[C@@H]1C(=O)Nc1c(C)cccc1C [3 D],"Analgesia-duration, intracutaneous wheals",[2]; Conc. 0.25%,81 ± 14 min
same,"Analgesia-duration, finger blockade",ulnar volar nerves; Concentration 0.25%,175 ± 21 min
same,Frequency (successful anesthesias of total performed),ulnar volar nerves; Concentration 0.25%,7/8
same,"Time of onset, finger blockade",ulnar volar nerves; Concentration 0.25%,14 ± 3 min
"CCCN1CCCCC1C(=O)Nc1c(C)cccc1C (stereo not drawn) [3 R, N--n-propylpipecolic acid 2,6-xylidide]",Tissue toxicity limits in %,tissue [1],1.5%
same,"Analgesia-duration, intracutaneous wheals",[2]; Conc. 0.25%,84 ± 15 min
same,"Analgesia-duration, finger blockade",ulnar volar nerves; Concentration 0.25%,263 ± 31 min
same,Frequency (successful anesthesias of total performed),ulnar volar nerves; Concentration 0.25%,9/10
same,"Time of onset, finger blockade",ulnar volar nerves; Concentration 0.25%,10 ± 1 min
same,Temperature Difference (T1 wheal vs T2 controls),skin; Conc. 0.25%,-0.1 °C
same,T1 Intracutaneous Wheal temperature,skin; Conc. 0.25%,33.1 °C
same,effect on temperature over the wheal,skin; comparison with lidocaine + adrenaline,practically no change in temperature
same,anesthetic effect,[3],so far below that of the racemic Bupivacaine
CCCCN1CCCC[C@@H]1C(=O)Nc1c(C)cccc1C [4 D],"Analgesia-duration, intracutaneous wheals",[2]; Conc. 0.25%,75 ± 11 min
same,"Analgesia-duration, finger blockade",ulnar volar nerves; Concentration 0.25%,243 ± 38 min
same,Frequency (successful anesthesias of total performed),ulnar volar nerves; Concentration 0.25%,14/20
same,"Time of onset, finger blockade",ulnar volar nerves; Concentration 0.25%,15 ± 4 min
CCCCN1CCCC[C@H]1C(=O)Nc1c(C)cccc1C [4 L],"Analgesia-duration, intracutaneous wheals",[2]; Conc. 0.25%,76 ± 10 min
same,"Analgesia-duration, finger blockade",ulnar volar nerves; Concentration 0.25%,259 ± 37 min
same,Frequency (successful anesthesias of total performed),ulnar volar nerves; Concentration 0.25%,13/20
same,"Time of onset, finger blockade",ulnar volar nerves; Concentration 0.25%,13 ± 3 min
CCCCCN1CCCC[C@@H]1C(=O)Nc1c(C)cccc1C [5 D],tissue irritation,tissue [4],irritating
CCCCCN1CCCC[C@H]1C(=O)Nc1c(C)cccc1C [5 L],tissue irritation,tissue [4],irritating
"Cc1cccc(C)c1NC(=O)C1CCCCN1CCO (stereo not drawn) [R--N--2-hydroxyethyl-pipecolic acid-2,6-xylidide]",Temperature Difference (T1 wheal vs T2 controls),skin; Conc. 1.0%,+0.5 °C
same,T1 Intracutaneous Wheal temperature,skin; Conc. 1.0%,31.2 °C

# From patent US4695576A, “L-N-n-propylpipecolic acid-2,6-xylidide” (priority 1985, dated 1987)
